Experimental data reported in patent publication US8008230B2, “Synergistic antifungal DDAC compositions” (priority 2004, dated 2011).
Like-named read-outs stand apart in the source and are kept apart here.

How the values were obtained:
Botrytis cinerea = assay: Poison plate assay (MIC and synergy index); format: cell-based, Botrytis cinerea strain BC03019; conditions: 168 h
Description: Activity against fungal growth was determined with the poison plate assay. A calculated amount of a stock solution (containing either DDAC, boscalid, fenhexamid, pyrimethanil, thiophanate-methyl, triflumizole, azoxystrobin, dimoxystrobin, picoxystrobin, or pyraclostrobin in a concentration of 500 ppm in dimethyl sulfoxide) was pipetted into 24-well plates in order to reach a final test concentration ranging from 0.21 to 5 ppm in 12 steps when mixed with a culture medium. These culture media were either Glucose Agar (GA) (10 g glucose, 1.5 g K2HPO4, 2 g KH2PO4, 1 g (NH4)2SO4, 0.5 g MgSO4 and 12.5 g agar in 1 liter deionised water) when pyrimethanil was used as the test substance or Potato Dextrose Agar (PDA) (4 g potato infusion, 20 g bacto dextrose and 15 g bacto agar in 1 liter deionised water) for any of the other test substances. The medium was inoculated with 2 μl of a spore/mycelium suspension. The 24-well plates were kept in the dark at a temperature of 22° C., and a relative humidity of 75% and evaluated for fungal growth after one week.
The following fungi species were used in the poison plate assay: Penicillium digitatum strain Sas (sensitive to demethylase inhibiting fungicides), Penicillium digitatum strain LDW930223 (reduced sensitivity to demethylase inhibiting fungicides), Penicillium italicum strain H17 (reduced sensitivity to demethylase inhibiting fungicides), Botrytis cinerea strain BC03019, Geotrichum candidum, or Gloeosporium album strain A18.
The lowest concentration in ppm of each test compound or mixture of test compounds sufficient to inhibit visible growth was taken as the minimum inhibitory concentration (MIC). When no fungal growth was observed, the abbreviation “ng” was used in Table 2. Synergy was calculated using the Synergy Index method described by von Kull et al. (F. C. Kull, P. C. Eismann, H. D. Sylvestrowicz, R. L. Mayer, 1961, Applied Microbiology 9: 538-541).
Synergistic Index (SI)=(x/m)+(y/n) • m and n are the MIC values of test substances 1 and 2 respectively, when applied alone • x and y are the respective quantities of test substances 1 and 2 in mixtures which also cause the complete inhibition of fungal growth, i.e. x and y equal [quantity of test substances 1 and 2, resp., in the mixture (e.g. 0.8 and 0.2, 066 and 0.33 . . . )] multiplied by [MIC-value of the mixture]. […] A result smaller than 1 indicates a synergistic effect of the combination.

Penicillium digitatum = assay: Curative treatment by dipping of lemons artificially inoculated with Penicillium digitatum; format: in vivo; conditions: read-out: % Efficacy
Description: Aqueous test solutions were prepared with concentrations of 10 μg/ml, 100 μg/ml and 1000 μg/ml of DDAC (I); and 500 μg/ml of imazalil (II-a). These test solutions were used to prepare mixtures comprising component (I) and component (II-a) with a concentration respectively of 1000 μg/ml of (I) and 500 μg/ml of (II-a); 100 μg/ml of (I) and 500 μg/ml of (II-a) and 10 μg/ml of (I) and 500 μg/ml of (II-a).
Lemons were artificially inoculated with a 10 mm diameter cork borer dipped in a spore suspension containing 10^6 cfu/ml of Penicillium digitatum. The lemons were treated after 24 hours by submerging for 30 seconds in one of the test solutions.
Treated and untreated lemons were incubated for 14 days in a dark climate room at 20° C. After the incubation period, the diameter of fungal growth was measured and % efficacy (growth inhibition) versus control was calculated. Fungal growth was quantified by measuring the distance, in mm, between the perimeter of the 10 mm diameter inoculation ring and the perimeter of the damaged zone.
Synergy was considered to occur when the observed effect, or measured activity, of a combination of both components was greater than the corresponding Ec value.

[1] = % DDAC + % test substance 0 + 100 (test substance alone), Potato Dextrose Agar, one week, read-out: MIC (minimum inhibitory concentration in ppm total a.i.)

Q: How did the MIC (Botrytis cinerea; read-out: MIC (minimum inhibitory concentration in ppm total a.i.), % DDAC + % test substance 0 + 100 (test substance alone), Potato Dextrose Agar, one week) turn out when CCCOC/C(=N\c1ccc(Cl)cc1C(F)(F)F)n1ccnc1 [triflumizole, (E)-4-chloro-α,α,α-trifluoro-N-(1-imidazol-1-yl-2-propoxyethylidene)-o-toluidine] was run?
A: > 5 µg/mL

Q: Which MIC (Botrytis cinerea; [1]) does the source give for COC(=O)N(OC)c1ccccc1COc1ccn(-c2ccc(Cl)cc2)n1 [pyraclostrobin, methyl N-(2-[1-(4-chlorophenyl)-1H-pyrazol-3-yloxymethyl]phenyl](N-methoxy)carbamate] here?
A: > 5 µg/mL

Q: With COC(=O)NC(=S)Nc1ccccc1NC(=S)NC(=O)OC [thioph. methyl, 4,4′-(o-phenylene)bis(3-thioallophanate)] as the molecule, how does the MIC (Botrytis cinerea; [1]) read?
A: 2.11 µg/mL

Q: What does the source list for CCCCCCCCCC[N+](C)(C)CCCCCCCCCC.[Cl-] [DDAC, didecyl dimethyl ammonium chloride]?
A: MIC (Botrytis cinerea; read-out: MIC (minimum inhibitory concentration in ppm total a.i.), % DDAC + % test substance 100 + 0 (DDAC alone), Glucose Agar (pyrimethanil series), one week): 5 µg/mL; MIC (Botrytis cinerea; read-out: MIC (minimum inhibitory concentration in ppm total a.i.), % DDAC + % test substance 100 + 0 (DDAC alone), Potato Dextrose Agar, one week): > 5 µg/mL; Emax at 10 µg/mL (Penicillium digitatum): 0%; Emax at 100 µg/mL (Penicillium digitatum): 0%; Emax at 1000 µg/mL (Penicillium digitatum): 22%

Q: For O=C(Nc1ccccc1-c1ccc(Cl)cc1)c1cccnc1Cl [boscalid, 2-chloro-N-(4′-chlorobiphenyl-2-yl)-nicotinamide], which MIC (Botrytis cinerea; [1]) is on record?
A: > 5 µg/mL

Q: Which MIC (Botrytis cinerea; [1]) does the source give for CC1(C(=O)Nc2ccc(O)c(Cl)c2Cl)CCCCC1 [fenhexamid, 2′,3′-dichloro-4′-hydroxy-1-methylcyclohexanecarboxanilide] here?
A: 1.58 µg/mL

Q: For C=CCOC(Cn1ccnc1)c1ccc(Cl)cc1Cl (stereo not drawn) [Imazalil (IIa)], which Emax at 500 µg/mL (Penicillium digitatum; test concentration 500 μg/ml, lemon, dipped 24 h after inoculation, 14 days incubation) is on record?
A: 78%

Q: With Cc1cc(C)nc(Nc2ccccc2)n1 [pyrimethanil, 4,6-dimethyl-N-phenyl-2-pyrimidinamine] as the molecule, how does the MIC (Botrytis cinerea; % DDAC + % test substance 0 + 100 (test substance alone), Glucose Agar, one week, read-out: MIC (minimum inhibitory concentration in ppm total a.i.)) read?
A: 2.11 µg/mL
